According to patent publication US20050165104A1, “Biocidal agents and veterinary methods” (priority 2002, published 2005):
Where two headings read alike, the source gives them in different places. Marks after values point to notes of the source that are not given here. Blank lines part the entries; values can stand above or below the compound they belong to.

What was measured:
[1] = pH of the tested solution; format: physicochemical
[2] = test system: Candida albicans, Staphylococcus aureus, Beta Streptococcus, Escherichia coli, Aspergillus fumigatus, and Trichophyton rubrum; test: Antimicrobial Diffusion Test, all organisms tested; format: cell-based; settings: for specificity of inhibitory activities over the organisms tested (in words): summary of Table 1
Procedure: (§1) The Antimicrobial Diffusion Test is used to determine the ability of a compound to inhibit growth of an organism. During the course of the test, each compound is treated as an unknown solution with an assigned number. After the data have been collected, the identity of the compound is assigned. In the test, a blood agar plate is inoculated with a known stock organism (fungus or bacteria). One drop of a numbered solution is applied to a freshly inoculated agar plate. A single numbered solution is applied per organism on a plate. The inoculated plate is examined on a daily basis for growth of the organism.
(§2) Areas of no microbial growth, or zones of inhibition are measured in millimeters and documented. If the plate is entirely covered with organism growth, there is no measurable zone of inhibition. After all zones of inhibition with the corresponding organisms and the solution number tested for sensitivity have been documented, each solution number is replaced by the correct solution name. The zones of inhibition are then used to establish relative in vitro resistance and sensitivity of the organism to the solution.
Table 1 provides data comparing the efficacy of a number of different antimicrobial compounds of the present invention. Compounds were assayed at varying concentrations using the Antimicrobial Diffusion Test described above. Summary for data on the following compounds is listed: 3-n-propylphenol, 3-pentylphenol, 5-propylresorcinol, 3-isobutylphenol, 4-hexylresorcinol, phenol, phenylacetic acid, 3-hydroxoctanoic acid, a reconstituted metapleural gland secretion from Atta sexdens worker ant, a reconstituted metapleural gland secretion from Atta sexdens soldier ant, a reconstituted metapleural gland secretion from Atta cephalotes worker ant, a reconstituted metapleural gland secretion from Atta cephalotes soldier ant, metapleural gland secretion from C. deformis, Mycocide, Tineacide, and Penlac. […]

Trichophyton rubrum = test: Antimicrobial Diffusion Test (blood agar plate, zone of inhibition); format: cell-based
Procedure: as §1, §2

Beta Streptococcus = test: as above; format: cell-based; settings: for zone of inhibition at 10000 µM / zone of inhibition at 100000 µM: Streptococcus, read-out: Inhibition, Beta Strep (zone of inhibition / relative potency); for zone of inhibition at 10000 µM: 0.01M (extracts: 0.01M total components)
Procedure: as §1, §2

Candida albicans = test: as above; format: cell-based
Procedure: as §1, §2

Escherichia coli = test: as above; format: cell-based
Procedure: as §1, §2

Aspergillus fumigatus = test: as above; format: cell-based
Procedure: as §1, §2

Staphylococcus aureus = test: as above; format: cell-based
Procedure: as §1, §2

[3] = test solution 0.01M (extracts: 0.01M total components)
[4] = test solution 0.1M (extracts: 0.1M total components)
[5] = 0.01M, value marked * (footnote not given)
[6] = 0.1M (extracts: 0.1M total components), value marked ** (footnote not given)
[7] = 0.1M, value marked * (footnote not given)
[8] = 0.1M (extracts: 0.1M total components)
[9] = 0.01M (extracts: 0.01M total components)
[10] = 0.1M (extracts: 0.1M total components), higher number = greater inhibition
[11] = 0.1M (extracts: 0.1M total components), value unmarked

pH [1, 3]: 6.5
pH [1, 4]: 6.5
Compound: CCCCCc1cccc(O)c1 [3-pentylphenol]
spectrum of effectiveness on the microorganisms tested (in words) ([2]; 0.1M, Table 1 row 3): exceptional broad spectrum effectiveness
specificity of inhibitory activities over the organisms tested (in words) [2]: ability to inhibit growth of all organisms tested
Inhibition, T. rubrum (zone of inhibition / relative potency) (Trichophyton rubrum; [5]): 16* mm
Inhibition, T. rubrum (zone of inhibition / relative potency) (Trichophyton rubrum; [6]): 45 mm
side-by-side comparison against Penlac 0.1M on Trichophyton rubrum (in words) (Trichophyton rubrum; 0.1M each): unexpectedly superior
Inhibition, T. rubrum (zone of inhibition / relative potency) (Trichophyton rubrum; [7]): 65 mm
zone of inhibition at 10000 µM (Beta Streptococcus): 15 mm
zone of inhibition at 100000 µM (Beta Streptococcus; [8]): 18 mm
Inhibition, Candida Albicans (zone of inhibition / relative potency) (Candida albicans; [9]): 15 mm
Inhibition, Candida Albicans (zone of inhibition / relative potency) (Candida albicans; [10]): 21 mm
Inhibition, E. coli (zone of inhibition / relative potency) (Escherichia coli; 0.01M): 16 mm
Inhibition, E. coli (zone of inhibition / relative potency) (Escherichia coli; [8]): 15 mm
Inhibition, Asp fumigatus (zone of inhibition / relative potency) (Aspergillus fumigatus; 0.01M): 9 mm
Inhibition, Asp fumigatus (zone of inhibition / relative potency) (Aspergillus fumigatus; [8]): 25 mm
inhibition of Aspergillus fumigatus growth (in words) (Aspergillus fumigatus; 0.1 M, FIG. 5): effective at inhibiting Aspergillus fumigatus growth
Inhibition, Staph aureus (zone of inhibition / relative potency) (Staphylococcus aureus; 0.01M): 14 mm
Inhibition, Staph aureus (zone of inhibition / relative potency) (Staphylococcus aureus; [8]): 18 mm

pH [1, 3]: 6.5
pH [1, 4]: 6.5
Compound: CCCc1cccc(O)c1 [3-n-propylphenol]
specificity of inhibitory activities over the organisms tested (in words) [2]: ability to inhibit growth of all organisms tested
Inhibition, T. rubrum (zone of inhibition / relative potency) (Trichophyton rubrum; [5]): 12* mm
Inhibition, T. rubrum (zone of inhibition / relative potency) (Trichophyton rubrum; [6]): 14 mm
Inhibition, T. rubrum (zone of inhibition / relative potency) (Trichophyton rubrum; [7]): 21 mm
zone of inhibition at 100000 µM (Beta Streptococcus; [8]): 15 mm
Inhibition, Candida Albicans (zone of inhibition / relative potency) (Candida albicans; [9]): 13 mm
Inhibition, Candida Albicans (zone of inhibition / relative potency) (Candida albicans; [10]): 13 mm
Inhibition, E. coli (zone of inhibition / relative potency) (Escherichia coli; [8]): 17 mm
Inhibition, Asp fumigatus (zone of inhibition / relative potency) (Aspergillus fumigatus; [8]): 10 mm
Inhibition, Staph aureus (zone of inhibition / relative potency) (Staphylococcus aureus; [8]): 14 mm

pH [1, 4]: 6
Compound: CCCCCC(O)CC(=O)O (centres unmarked) [3-hydroxoctanoic acid]
Inhibition, Beta Strep (zone of inhibition / relative potency) (Beta Streptococcus; [8]): 12 mm
Inhibition, Candida Albicans (zone of inhibition / relative potency) (Candida albicans; [10]): 12 mm
Inhibition, E. coli (zone of inhibition / relative potency) (Escherichia coli; [8]): 13 mm

Compound: CCCCCc1cc(O)cc(O)c1 [5-pentylresorcinol]
pH [1, 4]: 6.5
Inhibition, T. rubrum (zone of inhibition / relative potency) (Trichophyton rubrum; [7]): 47* mm
zone of inhibition at 100000 µM (Beta Streptococcus; [8]): 20 mm
Inhibition, Candida Albicans (zone of inhibition / relative potency) (Candida albicans; [10]): 19 mm
Inhibition, E. coli (zone of inhibition / relative potency) (Escherichia coli; [8]): 17 mm
Inhibition, Asp fumigatus (zone of inhibition / relative potency) (Aspergillus fumigatus; [8]): 20 mm
Inhibition, Staph aureus (zone of inhibition / relative potency) (Staphylococcus aureus; [8]): 16 mm

pH [1, 3]: 6.5
pH [1, 4]: 6
Compound: CCCCCCCC(O)CC(=O)O (centres unmarked) [3-hydroxydecanoic acid]
Inhibition, T. rubrum (zone of inhibition / relative potency) (Trichophyton rubrum; [11]): 12 mm
zone of inhibition at 10000 µM (Beta Streptococcus): 12 mm
zone of inhibition at 100000 µM (Beta Streptococcus; [8]): 11 mm
Inhibition, Candida Albicans (zone of inhibition / relative potency) (Candida albicans; [10]): 15 mm
Inhibition, E. coli (zone of inhibition / relative potency) (Escherichia coli; [8]): 13 mm
Inhibition, Asp fumigatus (zone of inhibition / relative potency) (Aspergillus fumigatus; [8]): 13 mm
Inhibition, Staph aureus (zone of inhibition / relative potency) (Staphylococcus aureus; [8]): 12 mm

pH [1, 3]: 6.5
pH [1, 4]: 6
Compound: CCCCCCCCCC(O)CC(=O)O (centres unmarked) [3-hydroxydodecanoic acid]
Inhibition, T. rubrum (zone of inhibition / relative potency) (Trichophyton rubrum; 0.01M, value unmarked): 10 mm
Inhibition, T. rubrum (zone of inhibition / relative potency) (Trichophyton rubrum; [11]): 14 mm
zone of inhibition at 100000 µM (Beta Streptococcus; [8]): 10 mm
Inhibition, Candida Albicans (zone of inhibition / relative potency) (Candida albicans; [10]): 8 mm
Inhibition, E. coli (zone of inhibition / relative potency) (Escherichia coli; [8]): 10 mm
Inhibition, Asp fumigatus (zone of inhibition / relative potency) (Aspergillus fumigatus; [8]): 7 mm
Inhibition, Staph aureus (zone of inhibition / relative potency) (Staphylococcus aureus; [8]): 9 mm

pH [1, 3]: 6.5
pH [1, 4]: 6.5
Compound: CCCCCCc1ccc(O)cc1O [4-hexylresorcinol]
Inhibition, T. rubrum (zone of inhibition / relative potency) (Trichophyton rubrum; [5]): 29* mm
Inhibition, T. rubrum (zone of inhibition / relative potency) (Trichophyton rubrum; [7]): 38* mm
zone of inhibition at 10000 µM (Beta Streptococcus): 16 mm
zone of inhibition at 100000 µM (Beta Streptococcus; [8]): 17 mm
Inhibition, Candida Albicans (zone of inhibition / relative potency) (Candida albicans; [9]): 19 mm
Inhibition, Candida Albicans (zone of inhibition / relative potency) (Candida albicans; [10]): 20 mm
Inhibition, E. coli (zone of inhibition / relative potency) (Escherichia coli; 0.01M): 17 mm
Inhibition, E. coli (zone of inhibition / relative potency) (Escherichia coli; [8]): 15 mm
Inhibition, Asp fumigatus (zone of inhibition / relative potency) (Aspergillus fumigatus; 0.01M): 16 mm
Inhibition, Asp fumigatus (zone of inhibition / relative potency) (Aspergillus fumigatus; [8]): 20 mm
Inhibition, Staph aureus (zone of inhibition / relative potency) (Staphylococcus aureus; 0.01M): 16 mm
Inhibition, Staph aureus (zone of inhibition / relative potency) (Staphylococcus aureus; [8]): 15 mm

Compound: CCCc1cc(O)cc(O)c1 [5-propylresorcinol]
pH [1, 4]: 6.5
Inhibition, T. rubrum (zone of inhibition / relative potency) (Trichophyton rubrum; [7]): 14* mm
zone of inhibition at 100000 µM (Beta Streptococcus): 14 mm
Inhibition, Candida Albicans (zone of inhibition / relative potency) (Candida albicans; [10]): 14 mm
Inhibition, E. coli (zone of inhibition / relative potency) (Escherichia coli; [8]): 15 mm

Compound: O=C(O)Cc1c[nH]c2ccccc12 [indoleacetic acid]
zone of inhibition at 100000 µM (Beta Streptococcus; [8]): 6 mm
